What was measured:
PC-3 = assay: Cytotoxicity in human PC3 cells incubated for 72 hrs by sulforhodamine B assay; settings: PC-3, 72 h
PANC-1 = assay: Cytotoxicity in human PANC1 cells incubated for 72 hrs by sulforhodamine B assay; settings: PANC-1, 72 h
HepG2 = assay: Cytotoxicity in human HepG2 cells incubated for 72 hrs by sulforhodamine B assay; settings: HepG2, 72 h
CAKI-1 [1] = assay: Cytotoxicity in human Caki1 cells incubated for 72 hrs by sulforhodamine B assay; settings: CAKI-1, 72 h
[2] = target: Hepatocyte growth factor receptor (Homo sapiens, UniProt P08581); assay: Inhibition of cMet (unknown origin) using poly(Glu, Tyr)4:1 substrate and ATP incubated fro 60 mins by ELISA
Sequence of Hepatocyte growth factor receptor (P08581 whole entry): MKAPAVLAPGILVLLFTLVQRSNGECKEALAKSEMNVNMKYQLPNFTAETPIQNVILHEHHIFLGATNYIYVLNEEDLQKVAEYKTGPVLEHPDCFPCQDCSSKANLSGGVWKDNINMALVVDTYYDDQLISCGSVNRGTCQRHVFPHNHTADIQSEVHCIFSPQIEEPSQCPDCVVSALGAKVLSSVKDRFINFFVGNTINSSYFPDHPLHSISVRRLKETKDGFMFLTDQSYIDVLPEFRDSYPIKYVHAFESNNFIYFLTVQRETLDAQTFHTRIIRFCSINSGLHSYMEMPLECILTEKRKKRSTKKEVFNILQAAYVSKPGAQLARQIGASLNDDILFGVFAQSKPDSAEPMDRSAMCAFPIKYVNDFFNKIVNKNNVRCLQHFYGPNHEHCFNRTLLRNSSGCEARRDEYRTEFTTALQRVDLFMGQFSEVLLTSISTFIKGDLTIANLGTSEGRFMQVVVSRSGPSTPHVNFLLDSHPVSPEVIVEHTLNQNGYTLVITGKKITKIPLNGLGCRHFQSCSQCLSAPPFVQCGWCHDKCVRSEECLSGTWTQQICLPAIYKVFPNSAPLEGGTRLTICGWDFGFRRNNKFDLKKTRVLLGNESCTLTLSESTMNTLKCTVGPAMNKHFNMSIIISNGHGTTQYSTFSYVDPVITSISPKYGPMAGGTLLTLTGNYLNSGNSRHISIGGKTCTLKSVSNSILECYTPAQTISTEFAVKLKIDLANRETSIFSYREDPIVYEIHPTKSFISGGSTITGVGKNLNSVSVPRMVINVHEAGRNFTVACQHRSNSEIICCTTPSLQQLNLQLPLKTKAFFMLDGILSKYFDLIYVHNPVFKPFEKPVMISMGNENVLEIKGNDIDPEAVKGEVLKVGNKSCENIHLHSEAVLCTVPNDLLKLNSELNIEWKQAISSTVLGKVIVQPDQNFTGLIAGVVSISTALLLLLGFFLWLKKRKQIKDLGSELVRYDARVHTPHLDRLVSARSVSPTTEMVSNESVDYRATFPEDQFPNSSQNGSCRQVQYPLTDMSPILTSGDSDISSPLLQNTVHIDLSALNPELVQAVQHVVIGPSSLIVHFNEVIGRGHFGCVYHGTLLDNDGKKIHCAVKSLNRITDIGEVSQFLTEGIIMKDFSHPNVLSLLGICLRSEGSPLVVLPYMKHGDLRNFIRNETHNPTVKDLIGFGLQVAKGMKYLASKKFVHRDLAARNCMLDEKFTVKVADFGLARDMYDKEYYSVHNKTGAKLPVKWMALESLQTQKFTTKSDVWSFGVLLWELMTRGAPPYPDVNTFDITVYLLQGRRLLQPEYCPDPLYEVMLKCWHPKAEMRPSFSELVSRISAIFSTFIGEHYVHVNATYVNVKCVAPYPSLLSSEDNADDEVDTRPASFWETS

[3] = target: Vascular endothelial growth factor receptor 2 (Homo sapiens, UniProt P35968); assay: Inhibition of VEGFR2 (unknown origin)
[4] = target: Epidermal growth factor receptor (Homo sapiens, UniProt P00533); assay: Inhibition of EGFR (unknown origin)
[5] = target: Proto-oncogene tyrosine-protein kinase receptor Ret (Homo sapiens, UniProt P07949); assay: Inhibition of RET (unknown origin)
Sequence of Proto-oncogene tyrosine-protein kinase receptor Ret (P07949 whole entry): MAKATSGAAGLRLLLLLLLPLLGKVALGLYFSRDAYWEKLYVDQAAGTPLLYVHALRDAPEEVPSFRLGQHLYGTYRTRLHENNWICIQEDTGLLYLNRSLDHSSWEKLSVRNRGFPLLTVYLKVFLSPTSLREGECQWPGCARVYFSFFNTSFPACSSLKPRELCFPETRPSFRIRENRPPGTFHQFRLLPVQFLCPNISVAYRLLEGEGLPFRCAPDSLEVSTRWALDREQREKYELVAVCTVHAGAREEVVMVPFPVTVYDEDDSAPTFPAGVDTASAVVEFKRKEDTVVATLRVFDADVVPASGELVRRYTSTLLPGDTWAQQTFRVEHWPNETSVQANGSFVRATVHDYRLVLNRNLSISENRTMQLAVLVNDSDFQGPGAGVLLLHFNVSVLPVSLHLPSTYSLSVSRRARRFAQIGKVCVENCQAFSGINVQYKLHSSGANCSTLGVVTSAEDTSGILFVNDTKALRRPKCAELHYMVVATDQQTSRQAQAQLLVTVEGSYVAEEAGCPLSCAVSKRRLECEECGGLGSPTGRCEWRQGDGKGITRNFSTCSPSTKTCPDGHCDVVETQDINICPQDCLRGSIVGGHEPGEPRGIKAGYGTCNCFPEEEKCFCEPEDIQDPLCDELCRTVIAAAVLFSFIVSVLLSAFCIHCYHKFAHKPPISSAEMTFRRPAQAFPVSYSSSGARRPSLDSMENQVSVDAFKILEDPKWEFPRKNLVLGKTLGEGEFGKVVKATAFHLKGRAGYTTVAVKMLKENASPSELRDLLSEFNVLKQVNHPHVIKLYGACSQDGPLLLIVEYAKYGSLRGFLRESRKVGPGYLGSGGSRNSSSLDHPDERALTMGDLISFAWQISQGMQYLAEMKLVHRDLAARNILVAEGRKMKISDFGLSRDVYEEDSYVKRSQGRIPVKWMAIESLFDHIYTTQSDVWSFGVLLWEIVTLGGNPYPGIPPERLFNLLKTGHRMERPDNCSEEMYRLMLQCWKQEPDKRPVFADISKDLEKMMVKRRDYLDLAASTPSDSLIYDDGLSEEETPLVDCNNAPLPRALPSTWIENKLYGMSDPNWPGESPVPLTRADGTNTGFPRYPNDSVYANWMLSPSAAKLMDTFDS

[6] = target: Mast/stem cell growth factor receptor Kit (Homo sapiens, UniProt P10721); assay: Inhibition of cKIT (unknown origin)
Sequence of Mast/stem cell growth factor receptor Kit (P10721 whole entry): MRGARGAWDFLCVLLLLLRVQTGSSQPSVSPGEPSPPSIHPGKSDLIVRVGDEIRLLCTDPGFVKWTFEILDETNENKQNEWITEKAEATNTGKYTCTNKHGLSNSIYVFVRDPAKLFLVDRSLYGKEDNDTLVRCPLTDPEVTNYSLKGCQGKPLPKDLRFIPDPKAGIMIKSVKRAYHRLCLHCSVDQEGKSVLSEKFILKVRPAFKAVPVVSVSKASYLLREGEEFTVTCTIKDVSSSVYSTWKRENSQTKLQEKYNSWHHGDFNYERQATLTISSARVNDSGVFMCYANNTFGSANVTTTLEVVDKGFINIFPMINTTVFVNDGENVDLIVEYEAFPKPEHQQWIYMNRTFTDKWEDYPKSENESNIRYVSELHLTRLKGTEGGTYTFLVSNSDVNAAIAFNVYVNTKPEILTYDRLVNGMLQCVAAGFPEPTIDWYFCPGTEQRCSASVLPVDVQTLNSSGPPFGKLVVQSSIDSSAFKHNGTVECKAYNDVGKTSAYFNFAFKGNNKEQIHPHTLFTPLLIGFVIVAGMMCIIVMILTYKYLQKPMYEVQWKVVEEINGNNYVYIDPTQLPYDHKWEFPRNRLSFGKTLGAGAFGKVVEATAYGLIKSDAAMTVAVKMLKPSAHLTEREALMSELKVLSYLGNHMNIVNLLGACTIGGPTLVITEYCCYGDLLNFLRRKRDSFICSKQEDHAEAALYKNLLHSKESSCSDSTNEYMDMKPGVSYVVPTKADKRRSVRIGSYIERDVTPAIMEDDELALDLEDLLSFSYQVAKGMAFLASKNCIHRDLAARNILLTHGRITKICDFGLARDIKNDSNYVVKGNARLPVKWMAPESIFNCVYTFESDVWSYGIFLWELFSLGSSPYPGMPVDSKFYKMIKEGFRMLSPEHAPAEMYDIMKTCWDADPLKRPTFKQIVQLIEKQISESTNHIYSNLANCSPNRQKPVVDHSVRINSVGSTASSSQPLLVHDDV

[7] = target: T1, Receptor-type tyrosine-protein kinase FLT3 (Homo sapiens, UniProt P36888); assay: Inhibition of FLT3 (unknown origin)
T1 sequence (P36888 whole entry): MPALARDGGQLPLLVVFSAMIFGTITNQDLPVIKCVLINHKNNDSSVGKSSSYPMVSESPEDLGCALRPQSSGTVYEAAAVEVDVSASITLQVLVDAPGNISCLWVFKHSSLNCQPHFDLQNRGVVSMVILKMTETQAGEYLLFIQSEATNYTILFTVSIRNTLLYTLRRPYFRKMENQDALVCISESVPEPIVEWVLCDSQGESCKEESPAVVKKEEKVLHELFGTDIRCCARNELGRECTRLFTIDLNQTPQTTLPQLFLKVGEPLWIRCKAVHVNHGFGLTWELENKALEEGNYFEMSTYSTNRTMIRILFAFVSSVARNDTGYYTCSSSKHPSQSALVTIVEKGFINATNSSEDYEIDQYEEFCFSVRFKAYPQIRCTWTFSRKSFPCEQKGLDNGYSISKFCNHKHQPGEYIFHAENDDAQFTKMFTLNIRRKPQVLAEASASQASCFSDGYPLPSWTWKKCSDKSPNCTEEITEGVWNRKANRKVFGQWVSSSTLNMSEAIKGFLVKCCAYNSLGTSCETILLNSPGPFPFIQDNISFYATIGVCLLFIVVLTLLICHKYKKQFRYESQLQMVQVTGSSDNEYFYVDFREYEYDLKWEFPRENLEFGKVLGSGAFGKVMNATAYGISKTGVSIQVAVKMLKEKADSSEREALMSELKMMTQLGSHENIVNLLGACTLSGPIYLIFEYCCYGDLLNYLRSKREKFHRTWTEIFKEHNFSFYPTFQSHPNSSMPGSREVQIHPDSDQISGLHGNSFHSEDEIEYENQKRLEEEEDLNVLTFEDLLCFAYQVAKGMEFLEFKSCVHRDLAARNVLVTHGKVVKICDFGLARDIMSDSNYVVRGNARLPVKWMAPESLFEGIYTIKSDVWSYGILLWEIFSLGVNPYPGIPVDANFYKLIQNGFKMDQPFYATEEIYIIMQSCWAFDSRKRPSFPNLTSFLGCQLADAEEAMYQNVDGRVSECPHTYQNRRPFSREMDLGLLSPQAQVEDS

Mus musculus [8] = assay: Toxicity in KM mouse assessed as mouse mortality at 620 mg/kg, po administered as single dose measured daily for 14 days; type: organism-based; settings: in vivo, 336 h
Mus musculus [9] = assay: Toxicity in KM mouse assessed as mouse mortality at 520 mg/kg, po administered as single dose measured daily for 14 days; type: organism-based; settings: in vivo, 336 h
Mus musculus [10] = assay: Toxicity in KM mouse assessed as mouse mortality at 420 mg/kg, po administered as single dose measured daily for 14 days; type: organism-based; settings: in vivo, 336 h
[11] = Toxicity in KM mouse assessed as mouse survival at 920 mg/kg, po administered as single dose measured daily for 14 days (reference value: 100%); type: organism-based; settings: in vivo
[12] = Toxicity in KM mouse assessed as mouse survival at 820 mg/kg, po administered as single dose measured daily for 14 days (reference value: 100%); type: organism-based; settings: in vivo
[13] = Toxicity in KM mouse assessed as mouse survival at 720 mg/kg, po administered as single dose measured daily for 14 days (reference value: 100%); type: organism-based; settings: in vivo
[14] = Toxicity in KM mouse assessed as mouse survival at 620 mg/kg, po administered as single dose measured daily for 14 days (reference value: 100%); type: organism-based; settings: in vivo
[15] = Toxicity in KM mouse assessed as mouse survival at 520 mg/kg, po administered as single dose measured daily for 14 days (reference value: 100%); type: organism-based; settings: in vivo
[16] = Toxicity in KM mouse assessed as mouse survival at 420 mg/kg, po administered as single dose measured daily for 14 days (reference value: 100%); type: organism-based; settings: in vivo
[17] = target: Voltage-gated inwardly rectifying potassium channel KCNH2 (Homo sapiens, UniProt Q12809); assay: Inhibition of human ERG at holding potential of -80 mV by cell based automated Qpatch method
Sequence of Voltage-gated inwardly rectifying potassium channel KCNH2 (Q12809 whole entry): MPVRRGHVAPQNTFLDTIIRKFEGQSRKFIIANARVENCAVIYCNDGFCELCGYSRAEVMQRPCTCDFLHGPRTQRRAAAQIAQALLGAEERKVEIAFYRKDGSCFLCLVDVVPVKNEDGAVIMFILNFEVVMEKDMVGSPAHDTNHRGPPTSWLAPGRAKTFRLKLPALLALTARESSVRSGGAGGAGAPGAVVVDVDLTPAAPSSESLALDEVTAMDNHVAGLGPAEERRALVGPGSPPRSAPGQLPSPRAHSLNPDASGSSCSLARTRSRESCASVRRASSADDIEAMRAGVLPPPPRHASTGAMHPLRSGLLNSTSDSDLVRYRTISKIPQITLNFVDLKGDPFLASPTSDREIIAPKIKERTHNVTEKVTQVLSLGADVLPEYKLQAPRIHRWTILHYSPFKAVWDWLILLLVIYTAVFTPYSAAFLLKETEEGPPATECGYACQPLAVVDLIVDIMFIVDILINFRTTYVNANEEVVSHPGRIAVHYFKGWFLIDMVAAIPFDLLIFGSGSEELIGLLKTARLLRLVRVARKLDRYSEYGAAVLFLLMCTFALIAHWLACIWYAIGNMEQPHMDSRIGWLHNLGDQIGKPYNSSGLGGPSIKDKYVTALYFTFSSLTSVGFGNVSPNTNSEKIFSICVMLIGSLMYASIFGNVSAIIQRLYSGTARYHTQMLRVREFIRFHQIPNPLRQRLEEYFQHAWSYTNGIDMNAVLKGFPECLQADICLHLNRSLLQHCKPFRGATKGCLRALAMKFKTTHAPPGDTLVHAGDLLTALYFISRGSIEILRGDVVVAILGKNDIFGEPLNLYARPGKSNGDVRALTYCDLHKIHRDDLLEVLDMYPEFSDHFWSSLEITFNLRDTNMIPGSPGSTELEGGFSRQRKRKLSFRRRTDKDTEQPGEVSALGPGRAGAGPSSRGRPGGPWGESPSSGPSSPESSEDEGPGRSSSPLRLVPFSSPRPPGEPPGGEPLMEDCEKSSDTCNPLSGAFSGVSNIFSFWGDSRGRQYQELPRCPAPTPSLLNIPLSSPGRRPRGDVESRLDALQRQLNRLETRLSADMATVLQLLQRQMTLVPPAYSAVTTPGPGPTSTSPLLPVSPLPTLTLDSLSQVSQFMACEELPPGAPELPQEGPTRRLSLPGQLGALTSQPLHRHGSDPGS

[18] = AUC (0 to t) in Sprague-Dawley rat at 20 mg/kg, po measured after 5 mins to 4 hrs post dose by LC-MS/MS method; type: ADME, organism-based; design: time 0.083-4 hr, dose 20 mg/kg, route oral; settings: in vivo
[19] = AUC (0 to t) in Sprague-Dawley rat at 4 mg/kg, iv measured after 5 mins to 4 hrs post dose by LC-MS/MS method; type: ADME, organism-based; design: time 0.083-4 hr, dose 4 mg/kg, route intravenous; settings: in vivo
[20] = AUC (0 to infinity) in Sprague-Dawley rat at 20 mg/kg, po measured after 5 mins to 4 hrs post dose by LC-MS/MS method; type: ADME, organism-based; design: dose 20 mg/kg, time infinity, route oral; settings: in vivo
[21] = AUC (0 to infinity) in Sprague-Dawley rat at 4 mg/kg, iv measured after 5 mins to 4 hrs post dose by LC-MS/MS method; type: ADME, organism-based; design: dose 4 mg/kg, time infinity, route intravenous; settings: in vivo
[22] = MRT (0 to t) in Sprague-Dawley rat at 20 mg/kg, po measured after 5 mins to 4 hrs post dose by LC-MS/MS method; type: ADME, organism-based; settings: in vivo
[23] = MRT (0 to t) in Sprague-Dawley rat at 4 mg/kg, iv measured after 5 mins to 4 hrs post dose by LC-MS/MS method; type: ADME, organism-based; settings: in vivo
[24] = Apparent volume of distribution during terminal phase in Sprague-Dawley rat at 20 mg/kg, po measured after 5 mins to 4 hrs post dose by LC-MS/MS method; type: ADME, organism-based; settings: in vivo, read-out: Vz/F
Rattus norvegicus [25] = assay: Apparent volume of distribution during terminal phase in Sprague-Dawley rat at 4 mg/kg, iv measured after 5 mins to 4 hrs post dose by LC-MS/MS method; type: ADME, organism-based; settings: in vivo
[26] = Apparent clearance during terminal phase in Sprague-Dawley rat at 20 mg/kg, po measured after 5 mins to 4 hrs post dose by LC-MS/MS method; type: ADME, organism-based; settings: in vivo, read-out: CLz/F (converted)
Rattus norvegicus [27] = assay: Apparent clearance during terminal phase in Sprague-Dawley rat at 4 mg/kg, iv measured after 5 mins to 4 hrs post dose by LC-MS/MS method; type: ADME, organism-based; settings: in vivo
[28] = Elimination half life in Sprague-Dawley rat at 20 mg/kg, po measured after 5 mins to 4 hrs post dose by LC-MS/MS method; type: ADME, organism-based; settings: in vivo, read-out: beta t1/2 (converted)
[29] = Elimination half life in Sprague-Dawley rat at 4 mg/kg, iv measured after 5 mins to 4 hrs post dose by LC-MS/MS method; type: ADME, organism-based; settings: in vivo, read-out: beta t1/2 (converted)
[30] = Tmax in Sprague-Dawley rat at 20 mg/kg, po measured after 5 mins to 4 hrs post dose by LC-MS/MS method; type: ADME, organism-based; settings: in vivo
[31] = Cmax in Sprague-Dawley rat at 20 mg/kg, po measured after 5 mins to 4 hrs post dose by LC-MS/MS method; type: ADME, organism-based; design: dose 20 mg/kg, route oral; settings: in vivo
[32] = Oral bioavailability in Sprague-Dawley rat at 20 mg/kg measured after 5 mins to 4 hrs post dose by LC-MS/MS method; type: ADME, organism-based; settings: in vivo
CAKI-1 [33] = assay: Antitumor activity in human Caki1 cells xenografted in nude mouse assessed as inhibition of tumor growth at 20 mg/kg, ig qd for 21 days; type: functional; settings: CAKI-1, po, 504 h, read-out: TGI
CAKI-1 [34] = assay: Antitumor activity in human Caki1 cells xenografted in nude mouse assessed as inhibition of tumor growth at 40 mg/kg, ig qd for 21 days; type: functional; settings: CAKI-1, po, 504 h, read-out: TGI
CAKI-1 [35] = assay: Antitumor activity in human Caki1 cells xenografted in nude mouse assessed as inhibition of tumor growth at 80 mg/kg, ig qd for 21 days; type: functional; settings: CAKI-1, po, 504 h, read-out: TGI
Mus musculus [36] = assay: Toxicity in human Caki1 cells xenografted nude mouse assessed as drug tolerance at 20 to 80 mg/kg, ig qd for 21 days; type: organism-based; settings: in vivo, po, 504 h
[37] = Cmax in Sprague-Dawley rat at 4 mg/kg, iv measured after 5 mins to 4 hrs post dose by LC-MS/MS method; type: ADME, organism-based; design: dose 4 mg/kg, route intravenous; settings: in vivo

Structure (SMILES): COc1cc2c(cc1OC)Nc1ncnc(Oc3ccc(NC(=O)C4(C(=O)Nc5ccc(F)cc5)CC4)cc3)c1N=C2
- IC50 (PC-3): 1.42 µM
- IC50 (PANC-1): 2.72 µM
- IC50 (HepG2): 2.07 µM
- IC50 (CAKI-1 [1]): 1.48 µM

Structure (SMILES): COc1cc2c(cc1OC)Oc1ncnc(Oc3ccc(NC(=O)C4(C(=O)Nc5ccc(F)cc5)CC4)cc3)c1N=C2
- IC50 [2]: > 1 µM

Structure (SMILES): COc1cc2c(cc1OC)Nc1nccc(Oc3ccc(NC(=O)C4(C(=O)Nc5ccc(F)cc5)CC4)cc3F)c1NC2
- IC50 [2]: > 1 µM

Structure (SMILES): COc1cc2c(cc1OC)Nc1ncnc(Oc3ccc(NC(=O)C4(C(=O)Nc5ccc(F)cc5)CC4)cc3F)c1NC2
- IC50 [2]: 0.0244 µM
- IC50 (PC-3): 4.1 µM
- IC50 (PANC-1): 1.86 µM
- IC50 (HepG2): 2.95 µM
- IC50 (CAKI-1 [1]): 0.748 µM
- IC50 [3]: 0.0625 µM
- IC50 [4]: 0.268 µM
- IC50 [5]: 0.163 µM
- IC50 [6]: 0.259 µM
- IC50 [7]: 0.852 µM
- Activity (Mus musculus [8]): Non-Toxic
- Activity (Mus musculus [9]): Non-Toxic
- Activity (Mus musculus [10]): Non-Toxic
- survival at 336 h [11]: 40%
- survival at 336 h [12]: 60%
- survival at 336 h [13]: 80%
- survival at 336 h [14]: 100%
- survival at 336 h [15]: 100%
- survival at 336 h [16]: 100%
- IC50 [17]: > 40 µM
- AUC(0-t) [18]: 6990 ng·h/mL
- AUC(0-t) [19]: 3590 ng·h/mL
- AUC(0-inf) [20]: 7080 ng·h/mL
- AUC(0-inf) [21]: 3590 ng·h/mL
- MRT last [22]: 2.36 h
- MRT last [23]: 1 h
- Vd/F [24]: 4.52 L/kg
- Vz/F (Rattus norvegicus [25]): 1.48 L/kg
- CL/F [26]: 48.8 mL/min/kg
- CLz/F (Rattus norvegicus [27]): 19 mL/min/kg
- half-life [28]: 1.09 h
- half-life [29]: 0.91 h
- Tmax [30]: 1.67 h
- Cmax [31]: 1930 ng/mL
- bioavailability [32]: 39%
- inhibition in vivo at 20 mg/kg (CAKI-1 [33]): 51.1%
- inhibition in vivo at 40 mg/kg (CAKI-1 [34]): 58.9%
- inhibition in vivo at 80 mg/kg (CAKI-1 [35]): 64.5%
- Activity (Mus musculus [36]): Non-Toxic
- Cmax [37]: 4660 ng/mL

Structure (SMILES): COc1cc2c(cc1OC)C(=O)Nc1c(Oc3ccc(NC(=O)C4(C(=O)Nc5ccc(F)cc5)CC4)cc3)ccnc1N2
- IC50 [2]: > 1 µM
